# Test results reported in patent publication US20050118224A1, “Edible pesticidal formulations” (priority 2001, published 2005).
# Experiment: Chlorpyrifos loss from liquid blends with oleophilic phase candidates, 70° C. for 70 h
# Assay type: physicochemical
# Conditions: 1.2 g chlorpyrifos in 9 g candidate, on aluminium foil
# Experimental: 1.2 g of chlorpyrifos was added to 9 g of each alternative oleophilic candidate (see Table 14). 1.02 g of this liquid blend was then placed onto aluminium foil within a glass Petrie dish. The control was molten chlorpyrifos alone. Samples were then placed in a fan forced oven at 70° C. for 70 h before being removed and analysed for chlorpyrifos content.
smiles,measurement,value
"CCOP(=S)(OCC)Oc1nc(Cl)c(Cl)cc1Cl [No oleophilic phase, chlorpyrifos]",Chlorpyrifos loss (%),37%
